Results published in a melting point compilation (Tetko et al.).

A melting point of 129 to 131 °C was found for Nc1nccnc1Br in this work.
A melting point of 55 to 57 °C was found for CCOC(=O)C1CN(C(=O)OC(C)(C)C)CCN1 (stereo unspecified) in this work.
A melting point of 165 to 167 °C was found for Cc1cc(/C=C(\C#N)C(=O)O)c(C)n1-c1ccccc1F in this work.
A melting point of 121 to 123 °C was found for O=C(O)C1CCCN(S(=O)(=O)c2ccccc2)C1 (stereo unspecified) in this work.
A melting point of 59 to 61 °C was found for NC(=S)CCCc1ccccc1 in this work.
A melting point of 218 to 220 °C was found for Cc1cc(C(N)C(=O)O)ccc1Cl (stereo unspecified) in this work.
A melting point of 98 to 100 °C was found for CCOC(=O)c1cnn(-c2ccc(C(F)(F)F)cn2)c1C(F)(F)F in this work.
A melting point of 188 to 190 °C was found for O=C(O)C(=O)Cc1ccc2ccccc2c1 in this work.
A melting point of 145 to 147 °C was found for CC(=O)Nc1cc(C#N)ccc1S(C)(=O)=O in this work.
A melting point of 239 to 241 °C was found for Cc1nc(-c2c(C)c(C)nn(C)c2=O)sc1C(=O)O in this work.
A melting point of 65 to 67 °C was found for CNCc1cn(-c2ccccc2)nc1-c1ccc(Cl)cc1 in this work.
A melting point of 92 to 94 °C was found for CC(C)(C)OC(=O)Nc1cc(N)ccc1F in this work.
A melting point of 119 to 121 °C was found for COc1ccc(Nc2n[nH]c(N)c2C#N)cc1 in this work.
A melting point of 132 to 134 °C was found for O=C(O)c1nnn(-c2ccccc2)c1C(F)(F)F in this work.
A melting point of 96 to 98 °C was found for NS(=O)(=O)C1CCCOC1 (stereo unspecified) in this work.
A melting point of 158 to 160 °C was found for COC(=O)Cn1nc2ccc(Cl)nn2c1=O in this work.
A melting point of 208 to 210 °C was found for COc1ccc(NC(N)=S)cc1 in this work.
A melting point of 229 to 231 °C was found for FC(F)(F)c1nc2c([nH]1)CCCC2 in this work.
A melting point of 129 to 131 °C was found for COc1ccc(C(N)=NO)c(OC)c1 in this work.
A melting point of 164 to 166 °C was found for Cc1noc(C2CC2)c1C(=O)O in this work.
A melting point of 273 to 275 °C was found for O=C(O)CNS(=O)(=O)c1c[nH]c2ncccc12 in this work.
A melting point of 170 to 172 °C was found for Nc1ccc2c(c1)CCC(=O)N2 in this work.
A melting point of 43 to 45 °C was found for COC(=O)C=CN(C)C in this work.
A melting point of 107 to 109 °C was found for CC(C)(C)C1CCc2[nH]c3ccc(Cl)cc3c2C1 (stereo unspecified) in this work.
A melting point of 65 to 67 °C was found for CCc1ccc(C(C)CC(=O)O)cc1 (stereo unspecified) in this work.
A melting point of 171 to 173 °C was found for Cc1cc(N)n(-c2cc(Cl)ncn2)n1 in this work.
A melting point of 123 to 127 °C was found for O=C(O)CCNS(=O)(=O)c1ccc(F)cc1 in this work.
A melting point of 179 to 181 °C was found for O=C(O)Cc1csc(N2CCNC2=O)n1 in this work.
A melting point of 201 to 203 °C was found for Cc1c[nH]c(=O)n1-c1cccc([N+](=O)[O-])c1 in this work.
A melting point of 149 to 151 °C was found for Nc1nc(-c2ccccc2)no1 in this work.
A melting point of 74 to 76 °C was found for CC(C)(C)OC(=O)N1CCCC(COCC(=O)O)C1 (stereo unspecified) in this work.
A melting point of 199 to 201 °C was found for O=C(O)c1ccc(-c2cnccn2)cn1 in this work.
A melting point of 138 to 140 °C was found for CC(Oc1ccc(O)cc1)C(N)=O (stereo unspecified) in this work.
A melting point of 143 to 145 °C was found for CNc1cc(Cl)nc(C)n1 in this work.
A melting point of 92 to 94 °C was found for Cc1ccc(-c2nc(C=O)co2)cc1 in this work.
A melting point of 203 to 205 °C was found for Nc1ccc(-c2nnc[nH]2)cc1 in this work.
A melting point of 38 to 40 °C was found for COc1ccc(Cl)c(N=C=O)c1 in this work.
A melting point of 78 to 80 °C was found for CC(Cc1ccccc1)n1cccc1C(=O)O (stereo unspecified) in this work.
A melting point of 185 to 187 °C was found for O=C(O)C1CCCN1C(=O)c1ccco1 (stereo unspecified) in this work.
A melting point of 61 to 63 °C was found for CC(C)CCc1cc(N)on1 in this work.
A melting point of 167 to 169 °C was found for Cc1cc(NC(=O)OC(C)(C)C)ccn1 in this work.
A melting point of 58 to 60 °C was found for COc1ccc(CCC(=O)CC#N)cc1 in this work.
A melting point of 205 to 207 °C was found for O=S(=O)(c1cccc(-c2nnc(S)o2)c1)N1CCCCC1 in this work.
A melting point of 79 to 81 °C was found for Cc1ccc(C)c(N2C(=O)C=CC2=O)c1 in this work.
A melting point of 78 to 80 °C was found for O=[N+]([O-])c1ccc(S(=O)(=O)Cl)c(C(F)(F)F)c1 in this work.
A melting point of 51 to 53 °C was found for CCOC(CC(N)=O)OCC in this work.
A melting point of 150 to 152 °C was found for CS(=O)(=O)c1ccc(C#N)cc1N in this work.
A melting point of less than 17 °C was found for CCOc1ccc(N)cc1S(=O)(=O)N(C)C in this work.
A melting point of 128 to 130 °C was found for O=C(O)c1ccc(Oc2ccc(Cl)cc2)c(F)c1 in this work.
A melting point of 71 to 73 °C was found for Cc1ccc(Oc2ccc(O)cc2)cc1 in this work.
A melting point of 70 to 72 °C was found for COc1ccc(N)cc1OCCN(C)C in this work.
A melting point of 187 to 189 °C was found for Cc1ccc(O)c(S(=O)(=O)N2CCNCC2)c1 in this work.
A melting point of 234 to 236 °C was found for NS(=O)(=O)Cc1cccc(C(=O)O)c1 in this work.
A melting point of 43 to 45 °C was found for Cc1ccc(S(=O)(=O)OCC2CCCO2)cc1 (stereo unspecified) in this work.
A melting point of 130 to 132 °C was found for O=C(NC1CC1)c1ccc(Cl)c([N+](=O)[O-])c1 in this work.
A melting point of 62 to 64 °C was found for Cc1ccccc1COc1c(C)cc(C=O)cc1C in this work.
